Experimental data taken from ChEMBL document CHEMBL5303573, “Mapping human microbiome drug metabolism by gut bacteria and their genes” (Nature, 2019).

Tests used:
[1] = The drug is tested on Ruminococcus gnavus strain: ATCC29149 for biotransformation. The drug concentrations were measured before and after a 12-h incubation by liquid-chromatography-coupled mass spectrometry (LC–MS); settings: mediterraneibacter gnavus, 2 µM
[2] = The drug is tested on Bacteroides fragilis strain: ATCC43859 for biotransformation. The drug concentrations were measured before and after a 12-h incubation by liquid-chromatography-coupled mass spectrometry (LC–MS); settings: 2 µM
[3] = The drug is tested on Bifidobacterium longum subsp. Infantis strain: CCUG52486 for biotransformation. The drug concentrations were measured before and after a 12-h incubation by liquid-chromatography-coupled mass spectrometry (LC–MS); settings: 2 µM
[4] = The drug is tested on Eubacterium hallii strain: DSM3353 for biotransformation. The drug concentrations were measured before and after a 12-h incubation by liquid-chromatography-coupled mass spectrometry (LC–MS); settings: anaerobutyricum hallii, 2 µM
[5] = The drug is tested on Enterococcus faecalis strain: V583 for biotransformation. The drug concentrations were measured before and after a 12-h incubation by liquid-chromatography-coupled mass spectrometry (LC–MS); settings: 2 µM
[6] = segatella copri, 12 h, 2 µM
Description: The drug is tested on Prevotella copri strain: DSM18205 for biotransformation. The drug concentrations were measured before and after a 12-h incubation by liquid-chromatography-coupled mass spectrometry (LC–MS)

[7] = bacteroides thetaiotaomicron, 12 h, 2 µM
Description: The drug is tested on Bacteroides thetaiotaomicron strain: VPI-5482 for biotransformation. The drug concentrations were measured before and after a 12-h incubation by liquid-chromatography-coupled mass spectrometry (LC–MS)

[8] = The drug is tested on Clostridium sp. strain: fecal isolate for biotransformation. The drug concentrations were measured before and after a 12-h incubation by liquid-chromatography-coupled mass spectrometry (LC–MS); settings: 2 µM
[9] = The drug is tested on Providencia rettgeri strain: DSM1131 for biotransformation. The drug concentrations were measured before and after a 12-h incubation by liquid-chromatography-coupled mass spectrometry (LC–MS); type: ADME; design: dose 2 uM, timepoint 0 vs 12 hours; settings: 2 µM
[10] = The drug is tested on Bacteroides fragilis strain: HMW615 for biotransformation. The drug concentrations were measured before and after a 12-h incubation by liquid-chromatography-coupled mass spectrometry (LC–MS); settings: 2 µM
[11] = The drug is tested on Collinsella intestinalis strain: DSM13280 for biotransformation. The drug concentrations were measured before and after a 12-h incubation by liquid-chromatography-coupled mass spectrometry (LC–MS); settings: 2 µM
[12] = enterocloster bolteae, 12 h, 2 µM
Description: The drug is tested on Clostridium bolteae strain: ATCCBAA-613 for biotransformation. The drug concentrations were measured before and after a 12-h incubation by liquid-chromatography-coupled mass spectrometry (LC–MS)

[13] = limosilactobacillus reuteri cf48-3a, 12 h, 2 µM
Description: The drug is tested on Lactobacillus reuteri CF48-3A strain: BEI HM-102 for biotransformation. The drug concentrations were measured before and after a 12-h incubation by liquid-chromatography-coupled mass spectrometry (LC–MS)

[14] = bacteroides eggerthii, 12 h, 2 µM
Description: The drug is tested on Bacteroides eggerthii strain: DSM20697 for biotransformation. The drug concentrations were measured before and after a 12-h incubation by liquid-chromatography-coupled mass spectrometry (LC–MS)

[15] = The drug is tested on Providencia stuartii strain: ATCC25827 for biotransformation. The drug concentrations were measured before and after a 12-h incubation by liquid-chromatography-coupled mass spectrometry (LC–MS); settings: 2 µM
[16] = bacteroides stercoris, 12 h, 2 µM
Description: The drug is tested on Bacteroides stercoris strain: ATCC43183 for biotransformation. The drug concentrations were measured before and after a 12-h incubation by liquid-chromatography-coupled mass spectrometry (LC–MS)

[17] = The drug is tested on Blautia hansenii strain: DSM20583 for biotransformation. The drug concentrations were measured before and after a 12-h incubation by liquid-chromatography-coupled mass spectrometry (LC–MS); settings: 2 µM
[18] = The drug is tested on Bacteroides cellulosilyticus strain: DSM14838 for biotransformation. The drug concentrations were measured before and after a 12-h incubation by liquid-chromatography-coupled mass spectrometry (LC–MS); settings: 2 µM

| Compound | Bacterial Biotransformation [1] | Bacterial Biotransformation [2] | Bacterial Biotransformation [3] | Bacterial Biotransformation [4] | Bacterial Biotransformation [5] | Bacterial Biotransformation [6] | Bacterial Biotransformation [7] | Bacterial Biotransformation [8] | Bacterial Biotransformation [9] | Bacterial Biotransformation [10] | Bacterial Biotransformation [11] | Bacterial Biotransformation [12] | Bacterial Biotransformation [13] | Bacterial Biotransformation [15] | Bacterial Biotransformation [18] | Bacterial Biotransformation [14] | Bacterial Biotransformation [16] | Bacterial Biotransformation [17] |
| --- | --- | --- | --- | --- | --- | --- | --- | --- | --- | --- | --- | --- | --- | --- | --- | --- | --- | --- |
| C[N+]12CCC(CC1)C(OC(=O)C(O)(c1ccccc1)c1ccccc1)C2.[Br-] (configuration not stated) [CLIDINIUM BROMIDE] | Compound NOT metabolized | – | Compound NOT metabolized | Compound NOT metabolized | Compound NOT metabolized | Compound NOT metabolized | Compound NOT metabolized | Compound NOT metabolized | Compound NOT metabolized | – | Compound NOT metabolized | – | – | Compound NOT metabolized | – | Compound NOT metabolized | Compound NOT metabolized | Compound NOT metabolized |
| Clc1cccc(Cl)c1N=C1NCCN1 [CLONIDINE] | Compound NOT metabolized | – | Compound NOT metabolized | Compound NOT metabolized | Compound NOT metabolized | Compound NOT metabolized | Compound metabolized | Compound NOT metabolized | Compound NOT metabolized | Compound metabolized | Compound NOT metabolized | Compound NOT metabolized | Compound NOT metabolized | Compound NOT metabolized | Compound NOT metabolized | – | Compound metabolized | – |
| COc1cc(NC(C)CCCN)c2ncccc2c1.O=P(O)(O)O.O=P(O)(O)O (configuration not stated) [PRIMAQUINE PHOSPHATE] | Compound NOT metabolized | – | Compound metabolized | Compound NOT metabolized | – | Compound metabolized | – | – | Compound NOT metabolized | Compound NOT metabolized | Compound metabolized | Compound metabolized | Compound NOT metabolized | – | – | Compound NOT metabolized | Compound NOT metabolized | – |

Continued, in another order:

| Bacterial Biotransformation [1] | Bacterial Biotransformation [2] | Bacterial Biotransformation [3] | Bacterial Biotransformation [4] | Bacterial Biotransformation [5] | Bacterial Biotransformation [6] | Bacterial Biotransformation [7] | Bacterial Biotransformation [8] | Bacterial Biotransformation [9] | Bacterial Biotransformation [10] | Bacterial Biotransformation [11] | Bacterial Biotransformation [12] | Bacterial Biotransformation [13] | Bacterial Biotransformation [15] | Bacterial Biotransformation [18] | Compound | Bacterial Biotransformation [14] | Bacterial Biotransformation [16] | Bacterial Biotransformation [17] |
| --- | --- | --- | --- | --- | --- | --- | --- | --- | --- | --- | --- | --- | --- | --- | --- | --- | --- | --- |
| Compound NOT metabolized | Compound metabolized | Compound NOT metabolized | Compound NOT metabolized | Compound NOT metabolized | Compound NOT metabolized | Compound NOT metabolized | Compound NOT metabolized | Compound NOT metabolized | Compound NOT metabolized | Compound NOT metabolized | Compound NOT metabolized | – | – | – | CCN(CC)CCNC(=O)c1ccc(NC(C)=O)cc1 [ACECAINIDE] | – | – | – |
| Compound NOT metabolized | Compound NOT metabolized | Compound NOT metabolized | Compound NOT metabolized | Compound NOT metabolized | Compound NOT metabolized | Compound NOT metabolized | – | Compound NOT metabolized | Compound NOT metabolized | Compound NOT metabolized | Compound NOT metabolized | Compound NOT metabolized | Compound NOT metabolized | – | Clc1ccc(Cn2c(CN3CCCC3)nc3ccccc32)cc1 [CLEMIZOLE] | Compound NOT metabolized | Compound NOT metabolized | Compound metabolized |
